ChEMBL document CHEMBL1142035

What follows are molecules tested against MAP kinase-activated protein kinase 2 (Homo sapiens, UniProt P49137).
MAP kinase-activated protein kinase 2, sequence (P49137 whole entry): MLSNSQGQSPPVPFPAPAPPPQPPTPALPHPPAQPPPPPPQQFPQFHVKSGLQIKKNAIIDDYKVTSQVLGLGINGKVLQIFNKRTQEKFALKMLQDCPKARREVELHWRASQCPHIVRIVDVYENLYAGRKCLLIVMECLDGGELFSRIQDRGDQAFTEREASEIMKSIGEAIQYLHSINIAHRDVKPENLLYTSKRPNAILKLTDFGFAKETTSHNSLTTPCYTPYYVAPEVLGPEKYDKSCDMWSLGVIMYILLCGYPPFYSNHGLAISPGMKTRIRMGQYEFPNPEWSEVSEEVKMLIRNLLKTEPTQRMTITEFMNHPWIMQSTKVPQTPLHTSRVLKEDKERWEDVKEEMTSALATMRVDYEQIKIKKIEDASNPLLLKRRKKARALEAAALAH
Description: Concentration of 50% inhibition by compound towards mitogen activated protein kinase -activated protein kinase 2

IC50, > 200 µM:
N#Cc1c(N)nc2c(c1N)Cc1ccccc1S2, N#Cc1c(N)nc2c(c1N)Cc1ccccc1S2(=O)=O, CCNc1cc2c(c(NCC)c1C#N)Cc1cc(O)c(O)cc1O2, COc1ccc2c(c1)Oc1cc(N)c(C#N)c(N)c1C2c1ccccc1 (stereo not given), N#Cc1c(N)cc2c(c1N)C(c1ccccc1)c1ccc(O)cc1O2 (stereo not given)
